Calls of active or inactive are those of the source. No cut-off for these calls is given here.

The test system of series [1] is HaCaT. The experiment in a line: Toxicity in human HaCaT cells assessed as H2O2-induced decrease in cell viability at 400 uM after 1 hr by CCK8 assay. It is filed as cell-based.
A short description of series [2]: Induction of Hydrogen sulfide production at pH 5 to 8 measured upto 15 hrs by UV-vis method based zinc-sulfide precipitation based methylene blue Method. It is filed as physicochemical. The following applies: pH 5, 15 h.
For series [3], the system named is HaCaT. As to the kind of experiment: Effect on mitochondrial membrane potential in human HaCaT cells after 1 hr by Rhodamine 123 staining based fluorescence assay. It is filed as ADME, cell-based.
The test system of series [4] is HaCaT. As to the kind of experiment: Cytoprotective activity in human HaCaT cells assessed as inhibition of H2O2-induced decrease in cell viability at 50 to 200 uM after 1 hr by CCK8 assay. It is filed as functional, cell-based. For orientation: Tetrazolium assays rely on reduction of a dye to a coloured formazan, in cell work by metabolically active cells.
The test system of series [5] is HaCaT. The experiment in a line: Cytoprotective activity in human HaCaT cells assessed as inhibition of H2O2-induced decrease in LDH release at 200 uM. Type of series: functional, cell-based. In general terms: LDH leaks from cells whose membrane has failed.
The subject of series [6] is HaCaT. As to the kind of experiment: Cytoprotective in human HaCaT cells assessed as inhibition of H2O2-induced decrease in mitochondrial membrane potential at 200 uM preincubated for 1 hr followed by H2O2 addition by Rhodamine 123 staining based fluorescence assay. It is filed as functional, cell-based.

Take “TIOMOLIBDATE DIAMMONIUM [listing 1 of 2 here]”: the Activity result is listed as “Toxic” in series [1], “Active” in series [2] and “Non-toxic” in series [3].

On to “TIOMOLIBDATE DIAMMONIUM [listing 2 of 2 here]”, for which the outcome in series [4], in series [5] and in series [6] was Active.

(Values after ChEMBL document CHEMBL3774314, “Ammonium tetrathiomolybdate as a water-soluble and slow-release hydrogen sulfide donor” (Bioorg Med Chem Lett, 2016).)
